# Laboratory results from PubChem BioAssay (NCI).
#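 Cells were grown in 96-well plates and exposed to each compound for 48 hours at five concentrations; endpoints were interpolated linearly between bracketing concentrations, or set to the highest concentration if not reached. GI50 = concentration required for 50% inhibition of growth. TGI: total growth inhibition.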
# Columns and labels:
# Assay in all cases: NCI anticancer screen, dose series, 48 h
# SF-539 CNS = system: SF-539 CNS
# SF-295 CNS = system: SF-295 CNS
# EKVX NSCLC = system: EKVX NSCLC
# OVCAR-3 ovarian = system: OVCAR-3 ovarian
# HCT-116 colon = system: HCT-116 colon
# MOLT-4 leukemia = system: MOLT-4 leukemia
# SN12C renal = system: SN12C renal
# HOP-62 NSCLC = system: HOP-62 NSCLC
# HOP-92 NSCLC = system: HOP-92 NSCLC
# IGROV1 ovarian = system: IGROV1 ovarian
# ACHN renal = system: ACHN renal
# HT29 colon = system: HT29 colon
# MDA-MB-231 breast = system: MDA-MB-231 breast
# SK-OV-3 ovarian = system: SK-OV-3 ovarian
# BT-549 breast = system: BT-549 breast
# NCI-H460 lung = system: NCI-H460 lung
# OVCAR-4 ovarian = system: OVCAR-4 ovarian
# HL-60(TB) leukemia = system: HL-60(TB) leukemia
# DU-145 prostate = system: DU-145 prostate
# HS 578T breast = system: HS 578T breast
# RXF 393 renal = system: RXF 393 renal
# SK-MEL-5 melanoma = system: SK-MEL-5 melanoma
# PC-3 prostate = system: PC-3 prostate
# NCI/ADR-RES ovarian = system: NCI/ADR-RES ovarian
# A498 renal = system: A498 renal
# SNB-19 CNS = system: SNB-19 CNS
# 786-0 renal = system: 786-0 renal
# KM12 colon = system: KM12 colon
# SR leukemia = system: SR leukemia
# LOX IMVI melanoma = system: LOX IMVI melanoma
# MALME-3M melanoma = system: MALME-3M melanoma
# NCI-H522 lung = system: NCI-H522 lung
# SK-MEL-2 melanoma = system: SK-MEL-2 melanoma
# A549 NSCLC = system: A549 NSCLC
# HCT-15 colon = system: HCT-15 colon
# CAKI-1 renal = system: CAKI-1 renal
# OVCAR-8 ovarian = system: OVCAR-8 ovarian
# SK-MEL-28 melanoma = system: SK-MEL-28 melanoma
# U251 CNS = system: U251 CNS
# CCRF-CEM leukemia = system: CCRF-CEM leukemia
# UACC-62 melanoma = system: UACC-62 melanoma
# OVCAR-5 ovarian = system: OVCAR-5 ovarian
# T-47D breast = system: T-47D breast
# M14 melanoma = system: M14 melanoma
# NCI-H23 lung = system: NCI-H23 lung
# MDA-MB-435 = system: MDA-MB-435
# HCC-2998 colon = system: HCC-2998 colon
# RPMI-8226 leukemia = system: RPMI-8226 leukemia
# MCF7 breast = system: MCF7 breast
# UO-31 renal = system: UO-31 renal
# SF-268 CNS = system: SF-268 CNS
# TK-10 renal = system: TK-10 renal
# SW-620 colon = system: SW-620 colon
# COLO 205 colon = system: COLO 205 colon
# SNB-75 CNS = system: SNB-75 CNS
# UACC-257 melanoma = system: UACC-257 melanoma
# NCI-H226 lung = system: NCI-H226 lung
# K-562 leukemia = system: K-562 leukemia
compound,measurement,setting,value
COC1=CC(=O)c2nc(-c3cccc(C)n3)[nH]c2C1=O,GI50,SF-539 CNS,18.8 µM
same,TGI,SF-539 CNS,36.7 µM
same,GI50,SF-295 CNS,28.4 µM
same,TGI,SF-295 CNS,85.2 µM
same,GI50,EKVX NSCLC,34.8 µM
same,TGI,EKVX NSCLC,> 100 µM
same,GI50,OVCAR-3 ovarian,22.9 µM
same,TGI,OVCAR-3 ovarian,46.4 µM
same,GI50,HCT-116 colon,18 µM
same,TGI,HCT-116 colon,35.7 µM
same,GI50,MOLT-4 leukemia,64.7 µM
same,TGI,MOLT-4 leukemia,> 100 µM
same,GI50,SN12C renal,32.9 µM
same,TGI,SN12C renal,> 100 µM
same,GI50,HOP-62 NSCLC,18.7 µM
same,TGI,HOP-62 NSCLC,35.9 µM
same,GI50,HOP-92 NSCLC,17.4 µM
same,TGI,HOP-92 NSCLC,43.7 µM
same,GI50,IGROV1 ovarian,20.5 µM
same,TGI,IGROV1 ovarian,47 µM
same,GI50,ACHN renal,25.1 µM
same,TGI,ACHN renal,70.3 µM
same,GI50,HT29 colon,33.4 µM
same,TGI,HT29 colon,> 100 µM
same,GI50,MDA-MB-231 breast,27.1 µM
same,TGI,MDA-MB-231 breast,66.2 µM
same,GI50,SK-OV-3 ovarian,19.3 µM
same,TGI,SK-OV-3 ovarian,35.7 µM
same,GI50,BT-549 breast,17.8 µM
same,TGI,BT-549 breast,36.5 µM
same,GI50,NCI-H460 lung,17.1 µM
same,TGI,NCI-H460 lung,35.2 µM
same,GI50,OVCAR-4 ovarian,20.4 µM
same,TGI,OVCAR-4 ovarian,50.3 µM
same,GI50,HL-60(TB) leukemia,76.4 µM
same,TGI,HL-60(TB) leukemia,> 100 µM
same,GI50,DU-145 prostate,25.6 µM
same,TGI,DU-145 prostate,73.3 µM
same,GI50,HS 578T breast,25.3 µM
same,TGI,HS 578T breast,76.7 µM
same,GI50,RXF 393 renal,> 100 µM
same,TGI,RXF 393 renal,> 100 µM
same,GI50,SK-MEL-5 melanoma,15.9 µM
same,TGI,SK-MEL-5 melanoma,36.4 µM
same,GI50,PC-3 prostate,11.8 µM
same,TGI,PC-3 prostate,39.5 µM
same,GI50,NCI/ADR-RES ovarian,32.5 µM
same,TGI,NCI/ADR-RES ovarian,> 100 µM
same,GI50,A498 renal,16.4 µM
same,TGI,A498 renal,35.2 µM
same,GI50,SNB-19 CNS,23.3 µM
same,TGI,SNB-19 CNS,60.6 µM
same,GI50,786-0 renal,19.8 µM
same,TGI,786-0 renal,46.3 µM
same,GI50,KM12 colon,35.4 µM
same,TGI,KM12 colon,> 100 µM
same,GI50,SR leukemia,30.6 µM
same,TGI,SR leukemia,> 100 µM
same,GI50,LOX IMVI melanoma,49.6 µM
same,TGI,LOX IMVI melanoma,> 100 µM
same,GI50,MALME-3M melanoma,20.8 µM
same,TGI,MALME-3M melanoma,64.3 µM
same,GI50,NCI-H522 lung,19.1 µM
same,TGI,NCI-H522 lung,59.1 µM
same,GI50,SK-MEL-2 melanoma,52.4 µM
same,TGI,SK-MEL-2 melanoma,> 100 µM
same,GI50,A549 NSCLC,19.1 µM
same,TGI,A549 NSCLC,39.1 µM
same,GI50,HCT-15 colon,52.5 µM
same,TGI,HCT-15 colon,> 100 µM
same,GI50,CAKI-1 renal,22 µM
same,TGI,CAKI-1 renal,54.9 µM
same,GI50,OVCAR-8 ovarian,24.7 µM
same,TGI,OVCAR-8 ovarian,78.2 µM
same,GI50,SK-MEL-28 melanoma,31.7 µM
same,TGI,SK-MEL-28 melanoma,> 100 µM
same,GI50,U251 CNS,20.4 µM
same,TGI,U251 CNS,41.7 µM
same,GI50,CCRF-CEM leukemia,61.8 µM
same,TGI,CCRF-CEM leukemia,> 100 µM
same,GI50,UACC-62 melanoma,30.3 µM
same,TGI,UACC-62 melanoma,> 100 µM
same,GI50,OVCAR-5 ovarian,30.9 µM
same,TGI,OVCAR-5 ovarian,> 100 µM
same,GI50,T-47D breast,15.8 µM
same,TGI,T-47D breast,58.1 µM
same,GI50,M14 melanoma,35.6 µM
same,TGI,M14 melanoma,> 100 µM
same,GI50,NCI-H23 lung,28.3 µM
same,TGI,NCI-H23 lung,> 100 µM
same,GI50,MDA-MB-435,35.6 µM
same,TGI,MDA-MB-435,> 100 µM
same,GI50,HCC-2998 colon,35.6 µM
same,TGI,HCC-2998 colon,> 100 µM
same,GI50,RPMI-8226 leukemia,27 µM
same,TGI,RPMI-8226 leukemia,> 100 µM
same,GI50,MCF7 breast,16.6 µM
same,TGI,MCF7 breast,35.7 µM
same,GI50,UO-31 renal,26.4 µM
same,TGI,UO-31 renal,> 100 µM
same,GI50,SF-268 CNS,24.7 µM
same,TGI,SF-268 CNS,49.6 µM
same,GI50,TK-10 renal,19.4 µM
same,TGI,TK-10 renal,40.2 µM
same,GI50,SW-620 colon,21.4 µM
same,TGI,SW-620 colon,54.8 µM
same,GI50,COLO 205 colon,26.5 µM
same,TGI,COLO 205 colon,67.7 µM
same,GI50,SNB-75 CNS,21.2 µM
same,TGI,SNB-75 CNS,43.6 µM
same,GI50,UACC-257 melanoma,65.3 µM
same,TGI,UACC-257 melanoma,> 100 µM
same,GI50,NCI-H226 lung,21.7 µM
same,TGI,NCI-H226 lung,43.8 µM
same,GI50,K-562 leukemia,> 100 µM
same,TGI,K-562 leukemia,> 100 µM
